According to US10766864B2, “Morphinan derivatives for the treatment of neuropathic pain” (Nektar Therapeutics, priority 2015, dated 2020):
Read-outs that look alike come from different tables or passages of the source.

Columns and labels:
[1] = tested on: rat formalin paw model of persistent pain; assay: Automated formalin paw test, oral administration; type: in vivo; conditions: at at least one dosage between 10 mg/kg and 300 mg/kg (inclusive), in the presence of 1-aminobenzotriazole
Description: The in vivo efficacy of selected compounds following oral administration was measured using the rat formalin model of persistent pain. Test compounds were administered 30-60 minutes prior to injection of 5% formalin to the hind-paw of rats and paw movements were measured using the automated Nociception Analyzer (ANA Instrument; University of California, San Diego) for 60 minutes post-formalin. In some experiments, rats were pre-treated 16-22 hours priors to the experiment with the cytochrome-P450 inhibitor, 1-aminobenzotriazole (ABT), to assess the activity of compounds in the absence of significant quantities of metabolites. ED50 values (mg/kg) were calculated from non-linear regression analyses of the cumulative number of flinches in Phase II (10-60 mins) versus dose of test compounds.
In the rat formalin paw model of persistent pain, compounds 83, 113, 114 and 115 (described in Examples 83, 113, 114 and 115, respectively) were tested. In each case, the oral efficacy of the compounds was measured in the presence and absence of the cytochrome CYP-450 inhibitor, 1-aminobenzotriazole.

NMDA receptor = assay: Competitive radioligand binding at NMDA receptor ([3H] MK801), rat forebrain membranes; conditions: 0.2 nM [3H] MK801, reflects free base activity
mu opioid receptor (MOR) = mu opioid receptor (MOR) (Homo sapiens (Human), UniProt P35372); assay: Competitive radioligand binding at MOR ([3H] Naloxone)
hMOR = hMOR (Homo sapiens (Human), UniProt P35372); assay: cAMP accumulation assay (inhibition of forskolin-stimulated cAMP) in CHO-K1 cells stably expressing hMOR; type: cell-based
Description: Mu opioid agonist activity for selected compounds was determined by the inhibition of forskolin-stimulated cAMP accumulation following MOR activation in CHO-K1 cells stably expressing the hMOR. […] IC50 values were calculated from […] analysis of the concentration-response curves using Graph Pad Prizm.

[2] = Phase II clinical study; cited from earlier work

Row | Structure (SMILES) | oral efficacy in Phase I and Phase II of the rat formalin paw model [1] | IC50 (NMDA receptor) [nM] | IC50 (mu opioid receptor (MOR); membranes from CHO-K1 cells expressing MOR, 2 nM [3H] Naloxone, reflects free base activity, read-out: MOR IC50) [nM] | IC50 (hMOR; hMOR-expressing CHO-K1 cells, 10 μM forskolin, 60 minute incubation, read-out: MOR cAMP IC50) [nM] | reduction of neuropathic pain [2] | side effects [2] | IC50 (mu opioid receptor (MOR)) [nM] | IC50 (hMOR) [nM]
1 | CN1CC[C@]23CCCC[C@H]2[C@H]1Cc1cc2sc(N)nc2cc13 [Compound 115, (4aR,5R,11bR)-14-methyl-2,3,4,4a,5,6-hexahydro-1H-5,11b-(epiminoethano)phenanthro[3,2-d]thiazol-9-amine] | statistically significant efficacy | 0.1 to 100 | 10 to 100 | 10 to 100 | – | – | – | –
2 | CN1CC[C@]23CCCC[C@H]2[C@H]1Cc1ccc(O)cc13 [levorphanol, 17-Methylmorphinan-3-ol] | – | – | – | – | effective in reducing neuropathic pain | severe dose-limiting side effects | – | –
3 | CN1CC[C@]23CCCC[C@H]2[C@H]1Cc1ccc(N)cc13 [Compound 114, 3-amino-17-morphinan] | statistically significant efficacy | 100 to 1000 | – | – | – | – | 100 to 1000 | 100 to 1000
4 | COCCOCCN1CC[C@]23CCCC[C@H]2[C@H]1Cc1ccc(Nc2cccnc2)cc13 [Compound 83, 17-[2-(2-methoxyethoxy)ethyl]-N-(pyridin-3-yl)morphinan-3-amine] | statistically significant efficacy | 1000 to 10000 | – | – | – | – | 100 to 1000 | –
5 | COCCN1CC[C@]23CCCC[C@H]2[C@H]1Cc1ccc(O)cc13 [Compound 113, 3-hydroxy-17-(2-methoxyethyl)morphinan] | statistically significant efficacy | 100 to 1000 | – | – | – | – | 0.1 to 10 | 0.1 to 10
